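Interpolation was linear, between the two tested concentrations surrounding the appropriate level; five concentrations were tested over 48 hours in 96-well plates. GI50 = concentration required for 50% inhibition of growth.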 Calls of active or inactive are those of the source. No stated cut-off is given here; in the data, active = GI50 up to about 1.1 µM and inactive = higher.
Legend:
Test in all cases: growth of human tumour cells (NCI), 48 h
[1] = tested on: UO-31
[2] = tested on: KM12
[3] = tested on: COLO 205
[4] = tested on: HOP-62
[5] = tested on: HOP-92
[6] = tested on: OVCAR-8
[7] = tested on: ACHN
[8] = tested on: OVCAR-3
[9] = tested on: KM-20L2
[10] = tested on: HCT-15
[11] = tested on: NCI-H522
[12] = tested on: RXF 393
[13] = tested on: DMS-273
[14] = tested on: TK-10
[15] = tested on: IGROV-1
[16] = tested on: OVCAR-4
[17] = tested on: CCRF-CEM
[18] = tested on: M14
[19] = tested on: XF498
[20] = tested on: DLD-1
[21] = tested on: LOX IMVI
[22] = tested on: DMS-114
[23] = tested on: HL-60
[24] = tested on: NCI-H460
[25] = tested on: SF-268
[26] = tested on: NCI-H226
[27] = tested on: MOLT-4
[28] = tested on: A549
[29] = tested on: OVCAR-5
[30] = tested on: SR
[31] = tested on: A498
[32] = tested on: NCI-H23
[33] = tested on: Malme-3M
[34] = tested on: LXFL 529
[35] = tested on: SK-MEL-28
[36] = tested on: UACC-257
[37] = tested on: SK-MEL-2
[38] = tested on: HCT-116
[39] = tested on: HOP-18
[40] = tested on: SNB-78
[41] = tested on: K562
[42] = tested on: SF-539
[43] = tested on: HT-29
[44] = tested on: SN12C
[45] = tested on: SNB-19
[46] = tested on: SF-295
[47] = tested on: M19-MEL
[48] = tested on: EKVX
[49] = tested on: U-251
[50] = tested on: RPMI-8226
[51] = tested on: SK-OV-3
[52] = tested on: SW-620

COc1cc(Cc2ccc3c(c2C#N)N(C)c2ccccc2S3)cc(OC)c1OC
GI50 [1]: 30.9 µM (inactive) | GI50 [2]: > 100 µM (inactive) | GI50 [3]: 36.9 µM (inactive) | GI50 [4]: 59.7 µM (inactive) | GI50 [5]: 48.5 µM (inactive) | GI50 [6]: 19.8 µM (inactive) | GI50 [7]: 41.4 µM (inactive) | GI50 [8]: 18.7 µM (inactive) | GI50 [9]: 36.1 µM (inactive) | GI50 [10]: 11 µM | GI50 [11]: 34.7 µM (inactive) | GI50 [12]: 15.3 µM (inactive) | GI50 [13]: 33.4 µM (inactive) | GI50 [14]: > 100 µM (inactive) | GI50 [15]: > 100 µM (inactive) | GI50 [16]: > 100 µM (inactive) | GI50 [17]: 39.3 µM (inactive) | GI50 [18]: > 100 µM (inactive) | GI50 [19]: 30.1 µM (inactive) | GI50 [20]: > 100 µM (inactive) | GI50 [21]: 8.15 µM (inactive) | GI50 [22]: 14.6 µM (inactive) | GI50 [23]: 13.7 µM (inactive) | GI50 [24]: 52.2 µM (inactive) | GI50 [25]: > 100 µM (inactive) | GI50 [26]: 62.4 µM (inactive) | GI50 [27]: 13.7 µM (inactive) | GI50 [28]: 9.4 µM (inactive) | GI50 [29]: > 100 µM (inactive) | GI50 [30]: 6.14 µM (inactive) | GI50 [31]: 21.8 µM (inactive) | GI50 [32]: 4.14 µM (inactive) | GI50 [33]: 34.3 µM (inactive) | GI50 [34]: 6.87 µM (inactive) | GI50 [35]: > 100 µM (inactive) | GI50 [36]: 12.1 µM (inactive) | GI50 [37]: > 100 µM (inactive) | GI50 [38]: 13.9 µM (inactive) | GI50 [39]: 72.4 µM (inactive) | GI50 [40]: > 100 µM (inactive) | GI50 [41]: 4.39 µM (inactive) | GI50 [42]: 17.8 µM (inactive) | GI50 [43]: 53.7 µM (inactive) | GI50 [44]: 22.3 µM (inactive) | GI50 [45]: 53.5 µM (inactive) | GI50 [46]: 7.53 µM (inactive) | GI50 [47]: 52.4 µM (inactive) | GI50 [48]: 40.8 µM (inactive) | GI50 [49]: 27.2 µM (inactive) | GI50 [50]: 8.39 µM (inactive) | GI50 [51]: > 100 µM (inactive) | GI50 [52]: > 100 µM (inactive)

From ChEMBL document CHEMBL1201862, “PubChem BioAssay data set” (2004)
